Patent US20260184700A1, “PDK1 REGULATORY COMPOUND AND COMPOSITION CONTAINING THE SAME” (PROVIBIO CO., LTD., priority 2024, published 2026)

Legend:
[1] = tested on: HCT-116 colon cancer cell lines; assay: Invasion Assay using Matrigel, HCT-116; format: cell-based, human; settings: HCT-116, Matrigel invasion, 24 hours treatment
Method: To evaluate the metastasis inhibitory efficacy of the compounds of the present invention on HCT-116 colon cancer cell lines, an Invasion Assay using Matrigel was performed to assess the cells' invasion ability.
First, Matrigel was thawed on ice in RPMI-1640 medium without FBS, then diluted with DMEM at a ratio of 1:20.
The diluted Matrigel mixture was applied to the upper chamber at 100 μl per well, and 750 μl of RPMI-1640 without FBS was added to the lower chamber.
The plates were then incubated at 37° C. for 1 hour to allow the Matrigel to solidify.
After coating, the Matrigel mixture in the upper chamber was removed using a pipette, and the chamber was washed with RPMI without FBS.
Human-derived colorectal cancer cell line HCT-116, obtained from the Korean Cell Bank, was cultured in RPMI-1640 medium containing 10% FBS.
Following stabilization, the cells were harvested using Trypsin-EDTA treatment, centrifuged at 1,200 rpm for 3 minutes, the supernatant was removed, and the cells were resuspended in the same medium, the medium in the lower chamber was replaced with 750 μl of RPMI-1640 supplemented with 10% FBS, and the cells were seeded into the upper chamber at a density of 5×10^4 cells/well.
The cells were cultured for 24 hours after attachment, and then the compounds according to the present invention (G078, G085, G086, G088, G089, PBK-2024-010, PBK-2025-010, PBK-2025-013, PBK-2025-016) and the control substance DMSO were diluted and added to the upper chamber after removing the medium.
Additionally, the medium in the lower chamber was replaced with fresh RPMI-1640 containing FBS, and the culture was continued.
After an additional 24 hours, the medium was removed, and 1 ml of methanol was added for 10 minutes to fix the cells.
Subsequently, 1 ml of Hematoxylin was added and reacted for 5 minutes, followed by 1 ml of Eosin, which was reacted for 30 seconds. The sample was then washed with distilled water (DW).
After staining was complete, any remaining cells in the upper chamber were removed. Finally, the infiltrated cells were observed under a microscope, photographed, and the degree of infiltration was analyzed.

[2] = tested on: Human B Lymphocyte cell line, SU-DHL-8; assay: Relative cell viability, CCK-8, SU-DHL-8; format: cell-based; settings: 48 hours
Method: Human-derived B lymphoma cell line SU-DHL-8 (Cat. #CRL-2961) purchased from ATCC was cultured in RPMI-1640 medium containing 10% FBS, 100 U/mL penicillin, and 100 μg/mL streptomycin.
The cell culture medium was then harvested, centrifuged at 1,300 rpm for 5 minutes, and the supernatant was removed. The cells were resuspended in the same medium and dispensed into a 96-well plate (Costar 96-well cell culture plate, Corning) at 90 μL per well, resulting in the conditions specified in Table 5.
Then, 10 μL of CCK-8 was added to each well, and the plates were incubated again at 37° C. in a 5% CO2 incubator for 4 hours.
In other words, when the survival rate of untreated cells (DMSO) is set at 100%, the relative cell survival rate in each group treated with the drug at different concentrations is indicated.

[3] = tested on: T cells isolated from mouse spleen; assay: T cell proliferation inhibition, CFSE flow cytometry, CD3/CD28 activation; format: cell-based; settings: CD3/CD28 activated, 3 days
Method: To verify the T cell proliferation inhibitory effect of the compounds according to the present invention, the following experiment was performed based on flow cytometry analysis using carboxyfluorescein diacetate succinimidyl ester (CFSE), a fluorescent dye that binds to intracellular molecules via covalent bonds.
Spleens were extracted from 7-week-old C57BL/6 mice, ground, and then separated into single cells using a strainer (40 μm pore size, SPL). Red blood cells were removed using ACK (Ammonium-Chloride-Potassium) lysis buffer to isolate white blood cells.
Finally, using a MACS Magnetic Stand and LS column, T cells were isolated from the spleen.
The T cells isolated from the spleen were resuspended in 1 mL of free medium (RPMI-1640+200 U/mL penicillin+200 μg/mL streptomycin), and 0.3 μL of CFSE (10 mM) was added. The mixture was incubated at 37° C. for 5 minutes.
Free medium (10 mL) was added to stop the reaction, and the cells were centrifuged to obtain the cell pellet.
RPMI 1640 medium containing 10% FBS, 100 U/mL penicillin, 100 μg/mL streptomycin, and resuspended the cells. The cells were then seeded into a 96-well plate at a density of 2×10^5 cells per well and activated with CD3 and CD28 antibodies (0.5 μg/mL each) to activate T cells.
The compound diluted in DMSO was added at concentrations of 10 nM, 100 nM, 1 μM, 10 μM, 30 μM, and 50 μM, with three wells per concentration, and cultured at 37° C. and 5% CO2 for three days. The cells were then analyzed using a FACS Canto instrument.
The proliferation inhibition rate (%) was calculated using the following formula: […]

Row | Compound | number of infiltrated cells [1] | Relative cell viability (%) ([2]; SU-DHL-8, 1 μM) | Relative cell viability (%) ([2]; SU-DHL-8, 10 μM) | Relative cell viability (%) ([2]; SU-DHL-8, 30 μM) | Relative cell viability (%) ([2]; SU-DHL-8, 50 μM) | Proliferation inhibition rate (%) ([3]; compound 100 nM) | Proliferation inhibition rate (%) ([3]; compound 1 μM) | Proliferation inhibition rate (%) ([3]; compound 10 μM) | Proliferation inhibition rate (%) ([3]; compound 30 μM) | Proliferation inhibition rate (%) ([3]; compound 50 μM) | Proliferation inhibition rate (%) ([3]; compound 10 nM)
1 | Nc1ncccc1C(=O)NCCCCCCCCCCCCN1CCNCC1 [Compound 5, 2-Amino-N-(12-(piperazin-1-yl)dodecyl)-nicotinamide] | reduction in the number of infiltrated cells | – | – | – | – | – | – | – | – | – | –
2 | CN1CCN(C(=O)OC(C)(C)C)CC1CCCCCCCCNC(=O)c1cccnc1N (centres unmarked) [Compound 12, tert-Butyl 3-(8-(2-aminonicotinamide)octyl)-4-methylpiperazine-1-carboxylate] | – | 7.60 | 3.79 | 1.64 | 1.13 | – | – | – | – | – | –
3 | CC1CN(CCCCCCCCCCCCNC(=O)c2cccnc2N)CC(C)O1 (centres unmarked) [Compound 21, 2-Amino-N-(12-(2,6-dimethylmorpholino)dodecyl) nicotinamide] | – | – | – | 3.70 | – | 100.00 | 100.00 | 100.00 | 100.00 | 100.00 | –
4 | O=C(NCCCCCCCCCCCCN1CCN2CCCC2C1)c1cccnc1 (centres unmarked) [Compound 23, N-(12-(hexahydropyrrolo[1,2-a]pyrazin-2 (1H)-yl)dodecyl)nicotinamide] | reduction in the number of infiltrated cells | – | – | – | – | – | – | – | – | – | –
5 | CC1CCN(CCCCCCCCCCCCNC(=O)c2cccnc2N)C1 (centres unmarked) [Compound 24, 2-Amino-N-(12-(3-methylpyrrolidin-1-yl)dodecyl) nicotinamide] | – | – | – | 0.62 | – | 100.00 | 100.00 | 100.00 | 100.00 | 100.00 | –
6 | Nc1ncccc1C(=O)NCCCCCCCCCCCCN1CCS(=O)(=O)CC1 [Compound 25, 2-Amino-N-(12-(1,1-dioxidothiomorpholino)dodecyl) nicotinamide] | – | – | – | 0.11 | 0.95 | – | 100.00 | 100.00 | 100.00 | 100.00 | –
7 | Nc1ncccc1C(=O)NCCCCCCCCCCCCN1CCC(F)C1 (centres unmarked) [Compound 26, 2-Amino-N-(12-(3-fluoropyrrolidin-1-yl)dodecyl) nicotinamide] | – | 1.70 | – | 0.05 | – | 100.00 | 100.00 | 100.00 | 100.00 | 100.00 | –
8 | CC1CNCCN1CCCCCCCCCCCCNC(=O)c1cccnc1N (centres unmarked) [Compound 35, 2-Amino-N-(12-(2-methylpiperazin-1-yl)dodecyl) nicotinamide] | – | – | 0.64 | 0.42 | – | 100.00 | 100.00 | 100.00 | 100.00 | 100.00 | –
9 | Nc1ncccc1C(=O)NCCCCCCCCCCCCN1CCC(Oc2ccncc2)CC1 [Compound 38, 2-Amino-N-(12-(4-(pyridin-4-yloxy)piperidin-1-yl)dodecyl) nicotinamide] | – | – | 3.30 | – | – | 100.00 | 100.00 | 100.00 | 100.00 | 100.00 | –
10 | CC(C)(C)OC(=O)N[C@H]1CCN(CCCCCCCCCCCCNC(=O)c2cccnc2N)C1 [Compound 49, tert-Butyl(S)-(1-(12-(2-aminonicotinamido)dodecyl)pyrrolidin-3-yl)carbamate] | reduction in the number of infiltrated cells | – | – | – | – | – | – | – | – | – | –
11 | Cl.Nc1ncccc1C(=O)NCCCCCCCCCCCCN1CC[C@H](N)C1 [Compound 50, (S)-2-Amino-N-(12-(3-aminopyrrolidin-1-yl)dodecyl) nicotinamide Hydrochloride] | – | 9.20 | – | – | – | 100.00 | 100.00 | 100.00 | 100.00 | 100.00 | –
12 | Cc1ccc(OC2CCN(CCCCCCCCCCCCNC(=O)c3cccnc3N)CC2)cc1 [Compound 51, 2-Amino-N-(12-(4-(p-tolyloxy)piperidin-1-yl)dodecyl) nicotinamide] | – | – | – | 0.89 | 0.48 | – | 100.00 | 100.00 | 100.00 | 100.00 | 0.77
13 | Nc1ncccc1C(=O)NCCCCCCCCCCCCN1CC(F)C1 [Compound 52, 2-Amino-N-(12-(3-fluoroazetidin-1-yl)dodecyl)nicotinamide] | reduction in the number of infiltrated cells | – | – | – | – | – | – | – | – | – | –
14 | Cc1ccc(C2CCN(CCCCCCCCCCCCNC(=O)c3cccnc3N)CC2)cc1 [Compound 55, 2-Amino-N-(12-(4-(p-tolyl)piperidin-1-yl)dodecyl) nicotinamide] | – | – | – | 1.10 | 0.97 | 100.00 | 100.00 | 100.00 | 100.00 | 100.00 | –
15 | Nc1ncccc1C(=O)NCCCCCCCCCCCCN1CCOC1=O [Compound 127, 2-amino-N-(12-(2-oxooxazolidin-3-yl)dodecyl) nicotinamide] | – | – | – | – | – | – | – | 100.00 | 100.00 | 100.00 | –
16 | Nc1ncccc1C(=O)NCCCCCCCCCCCCNC1CCOC1 (centres unmarked) [Compound 128, 2-amino-N-(12-((tetrahydrofuran-3-yl)amino)dodecyl) nicotinamide] | – | – | – | – | – | 100.00 | 100.00 | 100.00 | 100.00 | 100.00 | –
17 | Nc1ncccc1C(=O)NCCCCCCCCCCCCN1CC=CC1 [Compound 129, 2-amino-N-(12-(2,5-dihydro-1H-pyrrol-1-yl)dodecyl) nicotinamide] | – | – | – | – | – | 90.00 | 100.00 | 100.00 | 100.00 | 100.00 | 0.00
